PubChem BioAssay (NCI)
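All cell lines were grown in 96-well plates and treated with compound for 48 hours. Definition used: TGI = concentration required for complete inhibition of growth.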

Legend:
Assay in all cases: NCI tumour cell line growth inhibition, 48 h
[1] = test system: 786-0 renal
[2] = test system: A498 renal
[3] = test system: A549 NSCLC
[4] = test system: ACHN renal
[5] = test system: BT-549 breast
[6] = test system: CAKI-1 renal
[7] = test system: CCRF-CEM leukemia
[8] = test system: COLO 205 colon
[9] = test system: DU-145 prostate
[10] = test system: EKVX NSCLC
[11] = test system: HCC-2998 colon
[12] = test system: HCT-116 colon
[13] = test system: HCT-15 colon
[14] = test system: HL-60(TB) leukemia
[15] = test system: HOP-62 NSCLC
[16] = test system: HOP-92 NSCLC
[17] = test system: HS 578T breast
[18] = test system: HT29 colon
[19] = test system: IGROV1 ovarian
[20] = test system: K-562 leukemia
[21] = test system: KM12 colon
[22] = test system: LOX IMVI melanoma
[23] = test system: M14 melanoma
[24] = test system: MALME-3M melanoma
[25] = test system: MCF7 breast
[26] = test system: MDA-MB-231 breast
[27] = test system: MDA-MB-435
[28] = test system: MDA-N
[29] = test system: MOLT-4 leukemia
[30] = test system: NCI-H226 lung
[31] = test system: NCI-H23 lung
[32] = test system: NCI-H460 lung
[33] = test system: NCI-H522 lung
[34] = test system: NCI/ADR-RES ovarian
[35] = test system: OVCAR-3 ovarian
[36] = test system: OVCAR-4 ovarian
[37] = test system: OVCAR-5 ovarian
[38] = test system: OVCAR-8 ovarian
[39] = test system: PC-3 prostate
[40] = test system: RPMI-8226 leukemia
[41] = test system: RXF 393 renal
[42] = test system: SF-268 CNS
[43] = test system: SF-295 CNS
[44] = test system: SF-539 CNS
[45] = test system: SK-MEL-2 melanoma
[46] = test system: SK-MEL-28 melanoma
[47] = test system: SK-MEL-5 melanoma
[48] = test system: SK-OV-3 ovarian
[49] = test system: SN12C renal
[50] = test system: SNB-19 CNS
[51] = test system: SNB-75 CNS
[52] = test system: SR leukemia
[53] = test system: SW-620 colon
[54] = test system: T-47D breast
[55] = test system: TK-10 renal
[56] = test system: U251 CNS
[57] = test system: UACC-257 melanoma
[58] = test system: UACC-62 melanoma
[59] = test system: UO-31 renal
[60] = test system: DLD-1 colon
[61] = test system: DMS 273 small cell lung
[62] = test system: KM20L2 colon
[63] = test system: LXFL 529 NSCLC
[64] = test system: M19-MEL melanoma
[65] = test system: SNB-78 CNS

With C=CCSSCC=C the TGI [1] was greater than 56.5 µM, the TGI [2] was greater than 100 µM and the TGI [3] was greater than 100 µM. The TGI [4] was greater than 100 µM, the TGI [5] was greater than 81.5 µM and the TGI [6] was greater than 100 µM. For the same molecule, the TGI [7] was greater than 100 µM, the TGI [8] was greater than 100 µM and the TGI [9] was greater than 100 µM. For the same molecule, the TGI [10] was greater than 100 µM, the TGI [11] was greater than 100 µM and the TGI [12] was greater than 100 µM. It also gave a TGI [13] greater than 100 µM, a TGI [14] of 46 µM and a TGI [15] greater than 100 µM. For the same molecule, the TGI [16] was greater than 100 µM, the TGI [17] was 97.4 µM and the TGI [18] was greater than 100 µM. For the same molecule, the TGI [19] was greater than 100 µM, the TGI [20] was greater than 100 µM and the TGI [21] was greater than 100 µM. It also gave a TGI [22] greater than 38.6 µM, a TGI [23] greater than 100 µM and a TGI [24] greater than 100 µM. For the same molecule, the TGI [25] was greater than 100 µM, the TGI [26] was greater than 100 µM and the TGI [27] was greater than 84.7 µM. For the same molecule, the TGI [28] was greater than 80.2 µM, the TGI [29] was greater than 100 µM and the TGI [30] was greater than 92.6 µM. It also gave a TGI [31] greater than 95.9 µM, a TGI [32] greater than 100 µM and a TGI [33] greater than 100 µM. The TGI [34] was greater than 73.2 µM, the TGI [35] was greater than 100 µM and the TGI [36] was greater than 100 µM. The TGI [37] was greater than 100 µM, the TGI [38] was greater than 74.4 µM and the TGI [39] was greater than 100 µM. It also gave a TGI [40] greater than 80.4 µM, a TGI [41] greater than 74 µM and a TGI [42] greater than 90.5 µM. It also gave a TGI [43] greater than 100 µM, a TGI [44] greater than 71.9 µM and a TGI [45] greater than 100 µM. For the same molecule, the TGI [46] was greater than 100 µM, the TGI [47] was greater than 100 µM and the TGI [48] was greater than 100 µM. It also gave a TGI [49] greater than 86.9 µM, a TGI [50] greater than 100 µM and a TGI [51] greater than 100 µM. For the same molecule, the TGI [52] was 50.2 µM, the TGI [53] was greater than 100 µM and the TGI [54] was greater than 100 µM. The TGI [55] was greater than 100 µM, the TGI [56] was greater than 100 µM and the TGI [57] was greater than 100 µM. For the same molecule, the TGI [58] was greater than 100 µM and the TGI [59] was greater than 100 µM.
O=C(Nc1ccc(Cl)c(Cl)c1)N1N=C2c3ccccc3CCC2C1c1ccc(Cl)cc1 (stereo not given) was tested, and the TGI [1] was greater than 100 µM, the TGI [2] was greater than 100 µM and the TGI [3] was greater than 100 µM. The TGI [4] was greater than 100 µM, the TGI [5] was greater than 100 µM and the TGI [6] was greater than 100 µM. For the same molecule, the TGI [7] was greater than 100 µM, the TGI [8] was greater than 100 µM and the TGI [9] was greater than 100 µM. For the same molecule, the TGI [10] was greater than 100 µM, the TGI [11] was greater than 100 µM and the TGI [12] was greater than 100 µM. It also gave a TGI [13] greater than 100 µM, a TGI [14] greater than 100 µM and a TGI [15] greater than 100 µM. The TGI [16] was greater than 100 µM, the TGI [17] was greater than 100 µM and the TGI [18] was greater than 100 µM. The TGI [19] was greater than 100 µM, the TGI [20] was greater than 100 µM and the TGI [21] was greater than 100 µM. It also gave a TGI [22] greater than 100 µM, a TGI [23] greater than 100 µM and a TGI [24] greater than 100 µM. The TGI [25] was greater than 100 µM, the TGI [26] was greater than 100 µM and the TGI [27] was greater than 100 µM. It also gave a TGI [28] greater than 100 µM, a TGI [29] greater than 100 µM and a TGI [30] greater than 100 µM. For the same molecule, the TGI [31] was greater than 100 µM, the TGI [32] was greater than 100 µM and the TGI [33] was greater than 100 µM. It also gave a TGI [34] greater than 100 µM, a TGI [35] greater than 100 µM and a TGI [36] greater than 100 µM. It also gave a TGI [37] greater than 100 µM, a TGI [38] greater than 100 µM and a TGI [39] greater than 100 µM. It also gave a TGI [40] greater than 100 µM, a TGI [41] greater than 100 µM and a TGI [42] greater than 100 µM. For the same molecule, the TGI [43] was greater than 100 µM, the TGI [44] was greater than 100 µM and the TGI [45] was greater than 100 µM. It also gave a TGI [46] greater than 100 µM, a TGI [47] greater than 100 µM and a TGI [48] greater than 100 µM. For the same molecule, the TGI [49] was greater than 100 µM, the TGI [50] was greater than 100 µM and the TGI [51] was greater than 100 µM. It also gave a TGI [52] greater than 100 µM, a TGI [53] greater than 100 µM and a TGI [54] greater than 100 µM. It also gave a TGI [55] greater than 100 µM, a TGI [56] greater than 100 µM and a TGI [57] greater than 100 µM. The TGI [58] was greater than 100 µM and the TGI [59] was greater than 100 µM.
Molecule CN(Cc1ccccc1)C(=NC#N)N(C)Cc1ccccc1 has a TGI [1] greater than 100 µM, a TGI [3] greater than 100 µM and a TGI [4] greater than 100 µM. For the same molecule, the TGI [6] was greater than 100 µM, the TGI [8] was greater than 100 µM and the TGI [60] was greater than 100 µM. The TGI [61] was greater than 100 µM, the TGI [10] was greater than 100 µM and the TGI [11] was greater than 100 µM. The TGI [12] was greater than 100 µM, the TGI [13] was greater than 100 µM and the TGI [15] was greater than 100 µM. The TGI [16] was greater than 100 µM, the TGI [18] was greater than 100 µM and the TGI [19] was greater than 100 µM. The TGI [21] was greater than 100 µM, the TGI [62] was greater than 100 µM and the TGI [22] was greater than 100 µM. It also gave a TGI [63] greater than 100 µM, a TGI [23] greater than 100 µM and a TGI [64] greater than 100 µM. For the same molecule, the TGI [31] was greater than 100 µM, the TGI [32] was greater than 100 µM and the TGI [33] was greater than 100 µM. For the same molecule, the TGI [35] was greater than 100 µM, the TGI [36] was greater than 100 µM and the TGI [38] was greater than 100 µM. It also gave a TGI [42] greater than 100 µM, a TGI [43] greater than 100 µM and a TGI [44] greater than 100 µM. It also gave a TGI [45] greater than 100 µM, a TGI [46] greater than 100 µM and a TGI [47] greater than 100 µM. The TGI [48] was greater than 100 µM, the TGI [49] was greater than 100 µM and the TGI [50] was greater than 100 µM. The TGI [65] was greater than 100 µM, the TGI [53] was greater than 100 µM and the TGI [55] was greater than 100 µM. The TGI [56] was greater than 100 µM, the TGI [57] was greater than 100 µM and the TGI [58] was greater than 100 µM. It also gave a TGI [59] greater than 100 µM.
For Cn1c2c3ccc(Cl)cc3nc-2c(Cl)c2ccccc21, the TGI [1] was 33.9 µM, the TGI [2] was 45.1 µM and the TGI [3] was greater than 100 µM. For the same molecule, the TGI [4] was 32 µM, the TGI [5] was 50.1 µM and the TGI [6] was 32.1 µM. It also gave a TGI [7] greater than 100 µM, a TGI [8] of 40.1 µM and a TGI [9] of 33.4 µM. It also gave a TGI [10] of 90.2 µM, a TGI [11] of 20.5 µM and a TGI [12] of 4.99 µM. For the same molecule, the TGI [13] was 47.1 µM, the TGI [14] was greater than 100 µM and the TGI [15] was 45.3 µM. For the same molecule, the TGI [16] was 37.1 µM, the TGI [17] was greater than 100 µM and the TGI [18] was 49.9 µM. It also gave a TGI [19] of 42 µM, a TGI [20] greater than 100 µM and a TGI [21] of 53.9 µM. The TGI [22] was 72.3 µM, the TGI [23] was 61.3 µM and the TGI [24] was 34 µM. The TGI [25] was greater than 100 µM, the TGI [26] was 97.8 µM and the TGI [27] was 38.2 µM. It also gave a TGI [28] of 46.2 µM, a TGI [29] greater than 100 µM and a TGI [30] of 62.5 µM. The TGI [31] was 36.1 µM, the TGI [32] was 43.8 µM and the TGI [33] was 33.6 µM. The TGI [34] was 69.2 µM, the TGI [35] was 29.7 µM and the TGI [36] was 35.5 µM. It also gave a TGI [37] of 38.6 µM, a TGI [38] greater than 100 µM and a TGI [39] of 38.1 µM. The TGI [40] was greater than 100 µM, the TGI [41] was 36.9 µM and the TGI [42] was 36.3 µM. The TGI [43] was 36.6 µM, the TGI [44] was 49.2 µM and the TGI [45] was 48.2 µM. For the same molecule, the TGI [46] was 43.9 µM, the TGI [47] was 42.7 µM and the TGI [48] was greater than 100 µM. The TGI [49] was 34.5 µM, the TGI [50] was greater than 100 µM and the TGI [51] was 55.1 µM. It also gave a TGI [52] greater than 100 µM, a TGI [53] of 63.1 µM and a TGI [54] greater than 100 µM. The TGI [55] was 32.5 µM, the TGI [56] was greater than 100 µM and the TGI [57] was 37.4 µM. It also gave a TGI [58] of 50.8 µM and a TGI [59] of 32.6 µM.
